Measured values from patent US7964531B2, “3-phenoxy-4-pyridazinol derivatives and herbicidal composition containing the same” (Mitsui Chemicals Agro, Inc., priority 2001, dated 2011).

Assays:
Assay type in all cases: in vivo
[1] = test system: indian mustard (Brassica juncea (L.) Czern. et Coss); experiment: Test Example 2: herbicidal effects (soil treatment); conditions: dosage 5 kg/a; soil treatment the day after seeding; judged after 21 days
Source text: (§1) Judgment Standard • 0: Growth inhibition rate; 0 to 10% • 1: Growth inhibition rate; 11 to 30% • 2: Growth inhibition rate; 31 to 50% • 3: Growth inhibition rate; 51 to 70% • 4: Growth inhibition rate; 71 to 90% • 5: Growth inhibition rate; 91 to 100%.
(§2) Upland soil was filled in 150 cm^2 pot, and seeds of barnyardgrass and indian mustard (Brassica juncea (L.) Czern. et Coss) were sowed, and grown in a greenhouse. At the next day of seeding, a predetermined chemical dosage of the wettable powder prepared in accordance with Preparation example 1 was diluted in water and applied to soil surface. After 21 days from the treatment, herbicidal effects were judged in accordance with the judgment standard of Test example 1, and the results were shown in Table 3.

barnyardgrass = experiment: as above; conditions: dosage 5 kg/a; soil treatment the day after seeding; judged after 21 days
Source text: as §1, §2

Scirpus joncoides [2] = experiment: Test Example 4: herbicidal effects of mixed wettable powder, paddy-field pot test; conditions: no second compound, after 25 days
Summary of the method: (§3)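 Flooded greenhouse pots of paddy soil were sown in the top 1 cm with dormancy-broken weed seeds and planted with tubers, and 2.2-leaf rice was transplanted. Three days later, water-diluted wettable powder was applied at set dosages, and growth inhibition was rated 25 days after that on a 0 (0–15%) to 5 (96–100%) scale.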

Eleocharis kuroguwai = experiment: as above; conditions: no second compound, after 25 days
Summary of the method: as §3

[3] = test system: barnyardgrass (Echinochloa oryzicola Vasing.); experiment: as above; conditions: no second compound, after 25 days
Summary of the method: as §3

Sagittaria pygmaea = experiment: as above; conditions: no second compound, after 25 days
Summary of the method: as §3

[4] = test system: annual broad-leaved weeds (Lindernia spp. and Rotala indica); experiment: as above; conditions: no second compound, after 25 days
Summary of the method: as §3

Cyperus serotinus [5] = experiment: as above; conditions: no second compound, after 25 days
Summary of the method: as §3

[6] = test system: transplanted paddy-field rice; experiment: Test Example 4: crop injury against transplanted paddy-field rice; conditions: no second compound, after 25 days
Summary of the method: as §3

[7] = test system: transplanted paddy-field rice; experiment: Test Example 1: crop injury against transplanted paddy-field rice; conditions: wettable powder applied 3 days after transplanting, judged after 25 days
Summary of the method: (§4)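 Herbicidal effect and rice injury were graded on a six-step growth-inhibition scale (0: 0–10% to 5: 91–100%) at 25 days after pot application of water-diluted wettable powder, given 3 days post-transplant under flooded greenhouse conditions.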

Scirpus joncoides [8] = experiment: Test Example 1: herbicidal effects, paddy-field pot test; conditions: wettable powder applied 3 days after transplanting, judged after 25 days
Summary of the method: as §4

[9] = test system: annual broad-leaved weeds (Lindernia spp., Rotala indica); experiment: as above; conditions: wettable powder applied 3 days after transplanting, judged after 25 days
Summary of the method: as §4

[10] = test system: barnyardgrass (Echinochloa oryzicola Vasing.); experiment: as above; conditions: wettable powder applied 3 days after transplanting, judged after 25 days
Summary of the method: as §4

Cyperus serotinus [11] = experiment: as above; conditions: wettable powder applied 3 days after transplanting, judged after 25 days
Summary of the method: as §4

Row | SMILES | Herbicidal effects indian mustard [1] | Herbicidal effects Barnyard-grass (barnyardgrass) | Herbicidal effects Scirpus joncoides (Scirpus joncoides [2]; derivative 5 g/a) | Herbicidal effects Scirpus joncoides (Scirpus joncoides [2]; derivative 10 g/a) | Herbicidal effects Eleocharis kuroguwai (Eleocharis kuroguwai; derivative 5 g/a) | Herbicidal effects Eleocharis kuroguwai (Eleocharis kuroguwai; derivative 10 g/a) | Herbicidal effects Barnyard grass ([3]; derivative 5 g/a) | Herbicidal effects Barnyard grass ([3]; derivative 10 g/a) | Herbicidal effects Sagittaria pygmaea (Sagittaria pygmaea; derivative 5 g/a) | Herbicidal effects Sagittaria pygmaea (Sagittaria pygmaea; derivative 10 g/a) | Herbicidal effects Broad leaf ([4]; derivative 5 g/a) | Herbicidal effects Broad leaf ([4]; derivative 10 g/a) | Herbicidal effects Cyperus serotinus (Cyperus serotinus [5]; derivative 5 g/a) | Herbicidal effects Cyperus serotinus (Cyperus serotinus [5]; derivative 10 g/a) | Crop injury against transplanted rice ([6]; derivative 5 g/a) | Crop injury against transplanted rice ([6]; derivative 10 g/a) | Crop injury against transplanted rice ([7]; chemical dosage 10 g/a) | Crop injury against transplanted rice ([7]; chemical dosage 20 g/a) | Herbicidal effects Scirpus joncoides (Scirpus joncoides [8]; chemical dosage 10 g/a) | Herbicidal effects Scirpus joncoides (Scirpus joncoides [8]; chemical dosage 20 g/a) | also measured
1 | Oc1cc(Cl)nnc1Oc1cccc2c1CCC2 [Example 171] | 5 (Growth inhibition rate; 91 to 100%) | 5 (Growth inhibition rate; 91 to 100%) | 5 (Growth inhibition rate; 96 to 100%) | 5 (Growth inhibition rate; 96 to 100%) | 2 (Growth inhibition rate; 36 to 55%) | 3 (Growth inhibition rate; 56 to 75%) | 2 (Growth inhibition rate; 36 to 55%) | 3 (Growth inhibition rate; 56 to 75%) | 5 (Growth inhibition rate; 96 to 100%) | 5 (Growth inhibition rate; 96 to 100%) | 5 (Growth inhibition rate; 96 to 100%) | 5 (Growth inhibition rate; 96 to 100%) | 5 (Growth inhibition rate; 96 to 100%) | 5 (Growth inhibition rate; 96 to 100%) | 0 (Growth-inhibition rate; 0 to 15%) | 0 (Growth-inhibition rate; 0 to 15%) | 0 (Growth inhibition rate; 0 to 10%) | 0 (Growth inhibition rate; 0 to 10%) | 5 (Growth inhibition rate; 91 to 100%) | 5 (Growth inhibition rate; 91 to 100%) | Herbicidal effects Broad leaf ([9]; chemical dosage 10 g/a): 5 (Growth inhibition rate; 91 to 100%); Herbicidal effects Broad leaf ([9]; chemical dosage 20 g/a): 5 (Growth inhibition rate; 91 to 100%); Herbicidal effects Barnyard grass ([10]; chemical dosage 10 g/a): 3 (Growth inhibition rate; 51 to 70%); Herbicidal effects Barnyard grass ([10]; chemical dosage 20 g/a): 4 (Growth inhibition rate; 71 to 90%); Herbicidal effects Cyperus serotinus (Cyperus serotinus [11]; chemical dosage 10 g/a): 5 (Growth inhibition rate; 91 to 100%); Herbicidal effects Cyperus serotinus (Cyperus serotinus [11]; chemical dosage 20 g/a): 5 (Growth inhibition rate; 91 to 100%)
2 | Oc1cc(Cl)nnc1Oc1c(Cl)cccc1C1CC1 [Example 245] | 5 (Growth inhibition rate; 91 to 100%) | 3 (Growth inhibition rate; 51 to 70%) | 5 (Growth inhibition rate; 96 to 100%) | 5 (Growth inhibition rate; 96 to 100%) | 0 (Growth-inhibition rate; 0 to 15%) | 1 (Growth inhibition rate; 16 to 35%) | 3 (Growth inhibition rate; 56 to 75%) | 4 (Growth inhibition rate; 7.6 to 95%) | 4 (Growth inhibition rate; 7.6 to 95%) | 5 (Growth inhibition rate; 96 to 100%) | 5 (Growth inhibition rate; 96 to 100%) | 5 (Growth inhibition rate; 96 to 100%) | 4 (Growth inhibition rate; 7.6 to 95%) | 5 (Growth inhibition rate; 96 to 100%) | 0 (Growth-inhibition rate; 0 to 15%) | 0 (Growth-inhibition rate; 0 to 15%) | 0 (Growth inhibition rate; 0 to 10%) | 0 (Growth inhibition rate; 0 to 10%) | 5 (Growth inhibition rate; 91 to 100%) | 5 (Growth inhibition rate; 91 to 100%) | Herbicidal effects Broad leaf ([9]; chemical dosage 10 g/a): 5 (Growth inhibition rate; 91 to 100%); Herbicidal effects Broad leaf ([9]; chemical dosage 20 g/a): 5 (Growth inhibition rate; 91 to 100%); Herbicidal effects Barnyard grass ([10]; chemical dosage 10 g/a): 4 (Growth inhibition rate; 71 to 90%); Herbicidal effects Barnyard grass ([10]; chemical dosage 20 g/a): 4 (Growth inhibition rate; 71 to 90%); Herbicidal effects Cyperus serotinus (Cyperus serotinus [11]; chemical dosage 10 g/a): 5 (Growth inhibition rate; 91 to 100%); Herbicidal effects Cyperus serotinus (Cyperus serotinus [11]; chemical dosage 20 g/a): 5 (Growth inhibition rate; 91 to 100%)
3 | Cc1cccc(Br)c1Oc1nnc(Cl)cc1O [Example 249] | 5 (Growth inhibition rate; 91 to 100%) | 4 (Growth inhibition rate; 71 to 90%) | 3 (Growth inhibition rate; 56 to 75%) | 5 (Growth inhibition rate; 96 to 100%) | 1 (Growth inhibition rate; 16 to 35%) | 2 (Growth inhibition rate; 36 to 55%) | 1 (Growth inhibition rate; 16 to 35%) | 2 (Growth inhibition rate; 36 to 55%) | 5 (Growth inhibition rate; 96 to 100%) | 5 (Growth inhibition rate; 96 to 100%) | 5 (Growth inhibition rate; 96 to 100%) | 5 (Growth inhibition rate; 96 to 100%) | 5 (Growth inhibition rate; 96 to 100%) | 5 (Growth inhibition rate; 96 to 100%) | 0 (Growth-inhibition rate; 0 to 15%) | 0 (Growth-inhibition rate; 0 to 15%) | 0 (Growth inhibition rate; 0 to 10%) | 3 (Growth inhibition rate; 51 to 70%) | 5 (Growth inhibition rate; 91 to 100%) | 5 (Growth inhibition rate; 91 to 100%) | Herbicidal effects Broad leaf ([9]; chemical dosage 10 g/a): 5 (Growth inhibition rate; 91 to 100%); Herbicidal effects Broad leaf ([9]; chemical dosage 20 g/a): 5 (Growth inhibition rate; 91 to 100%); Herbicidal effects Barnyard grass ([10]; chemical dosage 10 g/a): 2 (Growth inhibition rate; 31 to 50%); Herbicidal effects Barnyard grass ([10]; chemical dosage 20 g/a): 3 (Growth inhibition rate; 51 to 70%); Herbicidal effects Cyperus serotinus (Cyperus serotinus [11]; chemical dosage 10 g/a): 5 (Growth inhibition rate; 91 to 100%); Herbicidal effects Cyperus serotinus (Cyperus serotinus [11]; chemical dosage 20 g/a): 5 (Growth inhibition rate; 91 to 100%)
